This note sets out measurements from ChEMBL document CHEMBL5380871.

One may read the IC50 as the concentration needed to halve the response being measured. Usually Ki stands for a dissociation constant, usually derived from enzyme kinetics or from competition with a known ligand.

Assay [1] in a line: Inhibition of human recombinant kallikrein using Pro-Phe-Arg-AMC as substrate pretreated with compound followed by substrate addition incubated for 60 mins by multilabel plate reader method.
The target of a further assay is Complement factor D (Homo sapiens, UniProt P00746). As to the kind of experiment: Binding affinity to factor D (unknown origin) assessed as inhibition constant.
A further assay deals with Prothrombin (Homo sapiens, UniProt P00734). Nature of the assay: Binding affinity to thrombin (unknown origin) assessed as inhibition constant.
A further assay concerns the target Trypsin (Homo sapiens, UniProt P07477+P07478+P35030). As to the kind of experiment: Binding affinity to trypsin (unknown origin) assessed as inhibition constant. The assay is classed as protein assay.
In assay [2] the target is T1, Complement C1s subcomponent (Homo sapiens, UniProt P09871).
T1 sequence (P09871 whole entry): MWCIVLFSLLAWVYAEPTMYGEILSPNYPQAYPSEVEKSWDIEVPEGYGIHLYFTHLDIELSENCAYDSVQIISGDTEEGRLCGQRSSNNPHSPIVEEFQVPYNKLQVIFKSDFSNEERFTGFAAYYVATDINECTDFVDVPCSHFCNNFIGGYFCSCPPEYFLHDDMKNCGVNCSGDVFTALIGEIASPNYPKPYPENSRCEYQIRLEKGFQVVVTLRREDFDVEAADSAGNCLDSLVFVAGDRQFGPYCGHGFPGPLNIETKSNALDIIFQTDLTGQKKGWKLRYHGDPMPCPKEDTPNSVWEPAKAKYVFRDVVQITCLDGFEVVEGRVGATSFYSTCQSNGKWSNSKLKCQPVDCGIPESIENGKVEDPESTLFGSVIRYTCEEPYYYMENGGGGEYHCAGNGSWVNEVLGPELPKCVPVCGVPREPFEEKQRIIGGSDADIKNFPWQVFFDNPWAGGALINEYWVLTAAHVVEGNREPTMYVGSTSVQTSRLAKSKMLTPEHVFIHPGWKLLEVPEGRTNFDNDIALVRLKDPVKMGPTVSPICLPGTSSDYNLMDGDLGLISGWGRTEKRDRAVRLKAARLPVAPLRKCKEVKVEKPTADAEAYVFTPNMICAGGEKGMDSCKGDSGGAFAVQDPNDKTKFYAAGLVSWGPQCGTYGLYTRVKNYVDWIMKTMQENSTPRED
Nature of the assay: Binding affinity to human C1S assessed as inhibition constant.

In assay [3] the target is T2, Complement C1r subcomponent (Homo sapiens, UniProt P00736).
T2 sequence (P00736 whole entry): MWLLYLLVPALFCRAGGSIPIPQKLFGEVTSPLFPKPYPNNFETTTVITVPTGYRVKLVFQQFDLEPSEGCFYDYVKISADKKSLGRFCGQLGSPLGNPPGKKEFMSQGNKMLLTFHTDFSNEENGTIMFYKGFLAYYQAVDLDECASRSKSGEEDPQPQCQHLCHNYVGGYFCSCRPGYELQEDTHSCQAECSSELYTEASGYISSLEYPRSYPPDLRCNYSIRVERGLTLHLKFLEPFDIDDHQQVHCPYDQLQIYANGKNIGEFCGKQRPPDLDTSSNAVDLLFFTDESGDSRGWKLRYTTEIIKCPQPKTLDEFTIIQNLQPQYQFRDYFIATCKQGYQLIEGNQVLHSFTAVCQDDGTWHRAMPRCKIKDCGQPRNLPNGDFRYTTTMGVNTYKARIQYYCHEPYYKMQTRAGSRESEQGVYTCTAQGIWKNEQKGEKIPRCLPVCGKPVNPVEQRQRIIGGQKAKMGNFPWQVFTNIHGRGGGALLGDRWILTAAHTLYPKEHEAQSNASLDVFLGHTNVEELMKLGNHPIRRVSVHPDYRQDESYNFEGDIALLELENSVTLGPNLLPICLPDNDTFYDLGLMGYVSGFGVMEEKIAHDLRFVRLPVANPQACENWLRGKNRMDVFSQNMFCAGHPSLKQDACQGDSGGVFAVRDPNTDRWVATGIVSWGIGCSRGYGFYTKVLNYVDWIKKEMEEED
Nature of the assay: Binding affinity to C1R (unknown origin) assessed as inhibition constant.

Complement factor D, sequence (P00746 whole entry): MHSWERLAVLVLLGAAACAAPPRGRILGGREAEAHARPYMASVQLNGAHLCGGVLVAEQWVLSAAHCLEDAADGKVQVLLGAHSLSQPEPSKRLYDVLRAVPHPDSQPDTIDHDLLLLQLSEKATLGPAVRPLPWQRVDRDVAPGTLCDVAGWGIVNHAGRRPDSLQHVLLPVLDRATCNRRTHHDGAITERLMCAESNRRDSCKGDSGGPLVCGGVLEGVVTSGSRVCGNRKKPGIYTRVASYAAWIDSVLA

Take `Cc1cc([C@H]2CN(c3cc(F)c4c(N)nncc4c3)CCN2c2cccc(F)c2)no1`: the IC50 in assay [1] is over 30 µM.
Take `CCCc1c(-c2csc(-c3cc(C(=N)N)sc3SC)n2)cnn1-c1ccccn1`: the Ki at Complement factor D is 3.7 µM; at Prothrombin, over 50 µM; at Trypsin, 0.18 µM; in assay [2], 0.07 µM; in assay [3], at least 50 µM.
